Test results: PubChem BioAssay (NCI)
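Compound exposure: 48 hours, 5 concentrations, 96-well plates. Abbreviation: GI50, concentration required for 50% inhibition of growth. The concentration for full growth arrest is given as TGI.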

Experiments:
Test in all cases: NCI-60 cell line screen, 48 h; in the data active = GI50 below about 0.43 µM; inactive = the rest
[1] = test system: A549 NSCLC
[2] = test system: HL-60(TB) leukemia
[3] = test system: UO-31 renal
[4] = test system: EKVX NSCLC
[5] = test system: SK-OV-3 ovarian
[6] = test system: NCI-H460 lung
[7] = test system: OVCAR-5 ovarian
[8] = test system: ACHN renal
[9] = test system: NCI-H522 lung
[10] = test system: SW-620 colon
[11] = test system: IGROV1 ovarian
[12] = test system: COLO 205 colon
[13] = test system: K-562 leukemia
[14] = test system: U251 CNS
[15] = test system: TK-10 renal
[16] = test system: MDA-MB-435
[17] = test system: SNB-75 CNS
[18] = test system: MDA-MB-231 breast
[19] = test system: HCC-2998 colon
[20] = test system: OVCAR-3 ovarian
[21] = test system: HCT-15 colon
[22] = test system: RXF 393 renal
[23] = test system: MOLT-4 leukemia
[24] = test system: SNB-19 CNS
[25] = test system: HOP-92 NSCLC
[26] = test system: OVCAR-4 ovarian
[27] = test system: 786-0 renal
[28] = test system: SK-MEL-5 melanoma

Cc1nc(-c2cc3ccccc3oc2=O)ccc1C(=O)/C=C/c1ccccn1
inactive: GI50 [1] > 100 µM | GI50 [2] > 100 µM | GI50 [3] > 100 µM | GI50 [4] > 100 µM | GI50 [5] > 100 µM | GI50 [6] > 100 µM | GI50 [7] > 100 µM | GI50 [8] > 100 µM | GI50 [9] > 100 µM | GI50 [10] 6.77 µM | GI50 [11] > 100 µM | GI50 [12] > 100 µM | GI50 [13] 6.47 µM | GI50 [14] 8.49 µM | GI50 [15] > 100 µM | GI50 [16] > 100 µM | GI50 [17] > 100 µM | GI50 [18] > 100 µM | GI50 [19] > 100 µM | GI50 [20] > 100 µM | GI50 [21] > 100 µM | GI50 [22] > 100 µM | GI50 [23] > 100 µM | GI50 [24] > 100 µM | GI50 [25] 7.25 µM | GI50 [26] > 100 µM | GI50 [27] > 100 µM | GI50 [28] > 100 µM
> 100 µM: TGI [1] | TGI [2] | TGI [3] | TGI [4] | TGI [5] | TGI [6] | TGI [7] | TGI [8] | TGI [9] | TGI [10] | TGI [11] | TGI [12] | TGI [13] | TGI [14] | TGI [15] | TGI [16] | TGI [17] | TGI [18] | TGI [19] | TGI [20] | TGI [21] | TGI [22] | TGI [23] | TGI [24] | TGI [25] | TGI [26] | TGI [27] | TGI [28]
